{"source": "patent US20070275949A1", "about": "“Benzazepine Derivatives and Methods of Prophylaxis or Treatment of 5Ht2C Receptor Associated Diseases” (Arena Pharmaceuticals, Inc., priority 2003, published 2007)", "origin": "cited, not measured here", "tested_on": "guinea pigs", "details": "in vivo, repeat administration", "data": [{"compound": "C[C@H](N)Cc1cccc(C(F)(F)F)c1", "note": "[dexnorfenfluramine]", "values": [{"measurement": "amyloid precursor protein (APPs) secretion", "value": "stimulated"}, {"measurement": "levels of Aβ production", "value": "reducing"}]}]}
